From patent US20020045591A1, “Methods and therapeutic compositions for treating cancer” (priority 1998, published 2002)
Non-standard residues stand in square brackets, D forms with d. Residues, ends and D or L forms follow the SMILES beside them. No end group written: not given here. *: point of attachment. Nle = CCCC[C@H](N)C(=O)O; Cbz = O=C(OCc1ccccc1)*

Key:
β-catenin [1] = test: β-catenin Western blot in Balb/C 3T3 cells treated with ubiquitin-proteasome inhibitors; type: cell-based, mouse; details: treated 4 hours, FIG. 17A
Description: (§1) Lactacystin A (dissolved in water at 0.4 mg/ml was used at a final concentration of 4 μg/ml) and MG-132 (used at 10 or 20 μM) were purchased from Calbiochem (La Jolla, Calif.).
Polyacrylamide Gel Electrophoresis and Immunoblotting: Equal amounts of total cell protein were separated by SDS PAGE, electro-transferred to nitrocellulose and incubated with monoclonal antibodies. The antigens were visualized by the enhanced chemiluminescence (Amersham, Buckinghampshire, U.K). In some experiments, cells were fractionated into Triton X-100-soluble and -insoluble fractions. Briefly, cells cultured on 35 mm dishes were incubated in 0.5 ml buffer containing 50 mM MES, pH 6.8, 2.5 mM EGTA, 5 mM MgCl2 and 0.5% Triton-X-100, at room temperature for 3 minutes. The Triton X-100-soluble fraction was removed, and the insoluble fraction was scraped into 0.5 ml of the same buffer. Equal volumes of the two fractions were analyzed by SDS PAGE followed by immunoblotting with the various antibodies.

β-catenin [2] = biological target: T1, β-catenin (Cricetulus griseus, UniProt G3H996); test: β-catenin level in CHO cells by Western blot; type: cell-based; details: CHO cells transiently transfected with GFP-cadherin constructs, FIG. 7B
T1 construct: resulting from the stabilization of the endogenous β-catenin by the transfected cadherin derivatives; endogenous in cells; host or cells: CHO cells, stably or transiently transfected with cadherin derivatives only
T1 sequence (G3H996 1-781): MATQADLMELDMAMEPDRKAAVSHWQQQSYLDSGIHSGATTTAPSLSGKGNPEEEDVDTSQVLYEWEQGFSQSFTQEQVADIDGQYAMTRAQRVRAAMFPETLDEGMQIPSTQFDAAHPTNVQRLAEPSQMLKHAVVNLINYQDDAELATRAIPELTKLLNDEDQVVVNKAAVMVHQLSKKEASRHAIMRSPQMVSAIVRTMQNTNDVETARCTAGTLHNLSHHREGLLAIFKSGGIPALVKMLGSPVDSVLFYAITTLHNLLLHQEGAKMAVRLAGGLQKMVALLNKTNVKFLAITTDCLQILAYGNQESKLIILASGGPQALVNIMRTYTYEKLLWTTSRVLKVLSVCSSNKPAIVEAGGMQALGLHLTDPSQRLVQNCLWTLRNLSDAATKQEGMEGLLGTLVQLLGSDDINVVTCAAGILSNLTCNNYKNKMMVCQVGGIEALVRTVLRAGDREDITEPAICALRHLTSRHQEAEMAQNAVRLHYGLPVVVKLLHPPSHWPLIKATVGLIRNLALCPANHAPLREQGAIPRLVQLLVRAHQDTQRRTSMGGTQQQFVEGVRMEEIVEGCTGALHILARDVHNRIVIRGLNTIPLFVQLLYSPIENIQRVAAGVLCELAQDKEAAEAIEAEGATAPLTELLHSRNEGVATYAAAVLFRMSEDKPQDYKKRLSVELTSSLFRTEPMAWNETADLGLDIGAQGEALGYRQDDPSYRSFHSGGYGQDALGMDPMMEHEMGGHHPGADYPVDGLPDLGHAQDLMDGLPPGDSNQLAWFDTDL
Description: (§2) Cell culture and transfections: CHO and SW480 human colon carcinoma cells were cultured in Dulbecco's modified Eagle's medium containing 10% fetal calf serum in an 8% CO2 incubator at 37° C. Transfections were performed using Lipofectamine (Gibco, BRL, USA) according to the manufacturer's instructions. Stably transfected CHO clones were generated by co-transfection with a plasmid encoding the puromycin resistance gene. Two days after transfection, cells were replated in the presence of 10 μg/ml puromycin (Sigma, Holon, Israel). Stable clones were isolated 2 weeks later and tested for the expression of the transgene by Western blot analysis.
Immunoblotting and immunoprecipitation: The following antibodies were used: polyclonal pan-cadherin or monoclonal anti cadherin (CH-19) and polyclonal anti β-catenin antibodies were from Sigma (Holon, Israel). Monoclonal anti β-catenin, 5H10 (from M. Wheelock), anti IL2Rα (from UBI), anti flag (M2, from IBI), anti HA (clone 12CA5, from Boehringer Mannheim, Germany), anti GFP (polyclonal, from Clontech, Palo Alto, Calif.), anti LEF-1 (polyclonal, kindly provided by Dr. R. Grosschedl). Secondary antibodies for Western blotting were goat anti rabbit or anti mouse conjugated to HRP (Amersham, Buckinghampshire, UK), and for immunofluorescence analysis the secondary antibodies were FITC-goat anti mouse (Cappel, USA) or rhodamine-anti rabbit antibodies (from Jackson Immuno-Research, West Grove, Pa.). Cells were harvested in Laemmli's sample buffer and equal amounts of total cell protein from the different clones, or from transient transfections, were separated by SDS-PAGE, electrotransferred to nitrocellulose and incubated with the different antibodies. For immunoprecipitation, cells were harvested in IP buffer (20 mM Tris pH 8.0, 1% Triton X-100, 140 mM NaCl, 10% glycerol, 1 mM EGTA, 1.5 mM MgCl2, 1 mM DTT, 1 mM sodium vanadate, and 50 μg/ml PMSF). Equal amounts (500-700 μg) of cell protein were incubated with 1 μl of the relevant antibody for 2 hours at 4° C., followed by incubation with 20 μl of protein A+G/agarose beads (Santa Cruz Biotechnologies, Santa Cruz, Calif.) for an additional 2 hours at 4° C. The agarose beads were washed with 20 mM Tris pH 8.0, 150 mM NaCl, and 0.5% NP-40, and the immune complexes recovered by boiling in Laemmli's sample buffer and resolved by SDS-PAGE.

[3] = test system: β-catenin-mediated transactivation; test: TOPFLASH luciferase transactivation in SW480 cells (Example 1); type: cell-based, human; details: SW480 cells, GFP-fused cadherin tail constructs, FIG. 7C
Description: as §2
Transactivation assays: CHO cells were transfected with TOPFLASH or FOPFLASH vectors (van de Wetering et al., 1997, ibid) and with pCDNA3 coding for β-galactosidase to normalize for transfection efficiency. The transfection mixture also contained either β-catenin, LEF-1 or cadherin derivatives in different combinations, as indicated. SW480 cells were transfected with TOPFLASH and cadherin derivatives. After 48 hours, cells were harvested and tested for luciferase and β-galactosidase activities as follows: Cells were washed 5 times with PBS, resuspended in PM-2 buffer (33 mM NaH2PO4, 66 mM Na2HPO4, 0.1 mM MnCl2, 2 mM MgSO4, 40 mM β-mercaptoethanol) and lysed by 5 cycles of freezing and thawing. Aliquots containing equal amounts of protein were incubated with O-Nitrophenyl-β-D-galactopyranoside (ONPG) at 37° C. until a yellow color appeared. The reactions were stopped with 1 M Na2CO3 and the absorbance at 420 nm was determined. Identical aliquots were tested for luciferase activity using luciferine buffer (100 mM Tris-O-Acetate pH 7.8, 10 mM Mg-O-Acetate, 1 mM EDTA, 74 μM luciferine (Boehringer Mannheim, Germany) and 2.22 mM ATP, pH 7.0). The luciferase reaction was monitored by a TD-20e luminometer (Turner, USA) and normalized for the β-galactosidase activity.
Distribution of N-cadherin derivatives and the effect on β-catenin transactivation in SW480 cells: SW480 colon carcinoma cells express mutant APC, low levels of E-cadherin and relatively high levels of free β-catenin. These cells also display very significant β-catenin-mediated transcription after transfection with TOPFLASH (FIG. 6A, lane 1). To determine the effect of cadherin on this β-catenin-driven transactivation, each of the three N-cadherin derivatives was transfected together with TOPFLASH into SW480 cells and luciferase activity determined. […] The most efficient inhibitor of this transactivation was the cadherin tail construct (FIG. 6A, lane 4), which inhibited the reporter gene by more than 85%. Full-length N-cadherin and the IL2R/N-cadherin chimera decreased the activity of the reporter by about 70% and 50%, respectively.

HT1080 cells = test: Butyrate induction in HT1080 cells stably expressing ΔN57 β-catenin; type: cell-based, human
Description: Cell Culture and Transfections: Canine kidney epithelial cells MDCK, human fibrosarcoma HT1080, 293-T human embryonic kidney cells, Balb/C mouse 3T3 and human colon carcinoma SW480 cell lines were cultured in Dulbecco's modified Eagle's medium supplemented with 10% calf serum (Gibco, Grand Island, N.Y.) at 37° C. in the presence of 7% CO2. The human renal carcinoma cell line KTCTL60 was grown in RPMI medium and 10% calf serum. Cells were transiently transfected with the cDNA constructs described below, using Ca^2+-phosphate or lipofectamine (Gibco) and the expression of the transgene was assessed between 24 and 48 hours after transfection. […]
Immunofluorescence Microscopy: Cells cultured on glass coverslips were fixed with 3.7% paraformaldehyde in PBS and permeabilized with 0.5% Triton X-100. […] Images of the fluorescent cells were recorded with a cooled, scientific grade CCD camera (Photometrics, Tucson, Ariz.). Integrated fluorescent intensities in transfected and nontransfected cells were determined, after the background was subtracted.
(§3) Polyacrylamide Gel Electrophoresis and Immunoblotting: Equal amounts of total cell protein were separated by SDS PAGE, electro-transferred to nitrocellulose and incubated with monoclonal antibodies. […] Equal volumes of the two fractions were analyzed by SDS PAGE followed by immunoblotting with the various antibodies.

β-catenin [4] = test: β-catenin Western blot in KTCTL60 cells treated with proteasome inhibitor; type: cell-based, human; details: 10 and 20 μM, FIG. 17B
Description: (§4) Cell Culture and Transfections: Canine kidney epithelial cells MDCK, human fibrosarcoma HT1080, 293-T human embryonic kidney cells, Balb/C mouse 3T3 and human colon carcinoma SW480 cell lines were cultured in Dulbecco's modified Eagle's medium supplemented with 10% calf serum (Gibco, Grand Island, N.Y.) at 37° C. in the presence of 7% CO2. The human renal carcinoma cell line KTCTL60 was grown in RPMI medium and 10% calf serum. Cells were transiently transfected with the cDNA constructs described below, using Ca^2+-phosphate or lipofectamine (Gibco) and the expression of the transgene was assessed between 24 and 48 hours after transfection. In some experiments, the expression of the stably transfected NH2 terminus-deleted β-catenin (Δ57) was enhanced in HT1080 cells by overnight treatment with 2 mM sodium butyrate.
as §1, §3

plakoglobin = test: Plakoglobin Western blot in KTCTL60-PG cells treated with proteasome inhibitor; type: cell-based, human; details: 10 and 20 μM, FIG. 17B
Description: as §4, §1, §3

Row | Compound | effect on β-catenin (Western blot) (β-catenin [1]) | stabilization of β-catenin against degradation (β-catenin [2]) | inhibition of luciferase activity (LEF-1-driven transactivation) [3] | also measured
1 | CCCC[C@@H](C=O)NC(=O)[C@H](CC(C)C)NC(=O)[C@H](CC(C)C)NC(C)=O [ALLN, N-Acetyl-Leu-Leu-Norleucinal] (Ac-Leu-Leu-[Nle]-aldehyde) | appearance of higher molecular weight β-catenin forms | – | – | –
2 | E30: E-cadherin tail fragment, amino acids 833-862, fused to GFP | – | ineffective in stabilizing β-catenin against degradation | did not affect β-catenin-mediated transactivation | –
3 | E72: C-terminal 72 amino acids of E-cadherin (813-884) fused to GFP | – | could also stabilize β-catenin | 60% | –
4 | N71: C-terminal 71 amino acids of N-cadherin (842-912) fused to GFP | – | could also stabilize β-catenin | 70% | –
5 | N30: N-cadherin tail fragment, amino acids 862-891, fused to GFP (LVFDYEGSGSTAGSLSSLNSSSSGGEQDYD; also: fused to GFP) | – | ineffective in stabilizing β-catenin against degradation | did not affect β-catenin-mediated transactivation | –
6 | CC(=O)N[C@@H](CSC(=O)[C@]1([C@@H](O)C(C)C)NC(=O)[C@H](C)[C@@H]1O)C(=O)O [Lactacystin] | appearance of higher molecular weight β-catenin forms | – | – | –
7 | CCCC(=O)[O-].[Na+] [butyrate, sodium butyrate] | – | – | – | β-catenin localization (HT1080 cells; butyrate-treated, FIG. 14D): dramatic translocation of β-catenin into the nucleus; increase in expression of the transgene (western blot) (HT1080 cells; overnight 2 mM sodium butyrate, data not shown): about 2 fold
8 | CC(C)C[C@@H](C=O)NC(=O)[C@H](CC(C)C)NC(=O)[C@H](CC(C)C)NC(=O)OCc1ccccc1 [MG-132] (Cbz-Leu-Leu-Leu-aldehyde) | appearance of higher molecular weight β-catenin forms | – | – | effect on β-catenin content (β-catenin [4]): dramatic elevation in β-catenin content; effect on plakoglobin level (plakoglobin): moderate increase in plakoglobin
